The results in this text go back to paper PMC6290777, “Inhalation of the prodrug PI3K inhibitor CL27c improves lung function in asthma and fibrosis” (Nature Communications, 2018).

A short description of data set [1]: Microsomial stability, rat. The settings on record: rat liver microsomes, NADPH. It is filed as in vitro ADME. The method, then: To define whether this prodrug was suitable for inhaled administration, CL27c was studied to evaluate selected ADME (absorption, distribution, metabolism, and excretion) and pharmacokinetic properties. First, stability of CL27c and CL27e was analyzed in mouse plasma (Supplementary Table 1) and in mouse, rat, and human liver microsomes in the presence of nicotinamide adenine dinucleotide phosphate (NADPH; Supplementary Table 2). Next, clearance of CL27c was analyzed in C57BL/6J mice after either intra-venous or oral administration. […] Clearance of CL27c and CL27e after oral administration could not be determined due to their low bioavailability (Supplementary Table 3). Next, pharmacokinetics after inhalation was studied in C57BL/6J mice after delivering an aerosolized micro-suspension of CL27c. As shown in Table 1 and Supplementary Fig. 1b, CL27c dose-dependently reached the lungs and its metabolite CL27e was detectable after inhalation of the highest dose. […] Therefore, the inhaled prodrug promotes local effects but prevents systemic absorption of pharmacologically relevant amounts of the active compound. […]
All tests for the microsomial stability of CL27c were conducted by the Istituto di Ricerche Biomediche (RBM) SpA – Merck Serono, Ivrea, Italy. […]
Then, cells […]
pretreated with different doses of CL27c were incubated at 37°C and 5% CO 2 for 10 minutes. […]
On the technique in general: Liver microsomes are vesicles of endoplasmic reticulum, rich in cytochrome P450 enzymes.

The subject of data set [2] is OVA-induced chronic allergic asthma. Kind of data set: OVA-induced chronic allergic asthma model. It is filed as in vivo, BALB/c mice. The method, then:
BALF was performed to obtain leukocytes from alveolar space. The trachea was exposed and a 1.7-mm-outside-diameter polyethylene catheter was inserted. BAL was performed by washing the lungs three-times with three different 500 µl aliquots of PBS. BALF samples were centrifuged at 600 × g for 10 min at 4 °C on a histology glass slide and stained with Diff Quick (MICROPTIC, #DQ-ST). The number of leukocytes and differential counts of different population were obtained evaluating the percentage leukocyte populations over the total cell number.
Mice were anesthetized with a subcutaneous injection of ketamine and xylazine (130 mg/Kg ketamine and 8.5 mg/Kg xylazine) to maintain spontaneous breathing under anesthesia. Mice were tracheostomized, placed in a body plethysmograph and connected to a computer-controlled ventilator (Forced Pulmonary Maneuver System®, Buxco Research Systems©, Wilmington, North Carolina USA). First, an average breathing frequency of 160 breaths/min was imposed to the anesthetized animal by a pressure-controlled ventilation until a regular breathing pattern and complete expiration at each breathing cycle was obtained. Under mechanical respiration, respiratory flow and airway pressure were measured to compute dynamic compliance (Cdyn) and lung resistance (RL). To measure the TLC, pressure–volume maneuvers were performed, where lungs were inflated to a standard pressure of +30 cm H2O and then let slowly exhale until a negative pressure of −30 cm H2O was reached. To measure the FEV Fast-Flow Volume maneuvers was performed. In this maneuver, lungs were first inflated to +30 cm H2O (TLC) and, immediately, a negative pressure (−30 cm H2O) was applied in order to enforce expiration. To evaluate AHR, the same mice used in previous maneuvers (basal condition) received Metacholine, 1 mg/Kg (Acetyl-β-methylcholine chloride, A-2251, Sigma-Aldrich St.Louis, MO,USA) i.v., and 20 sec after, a new set of maneuvers were conducted to assess RL changes. Suboptimal maneuvers were rejected and for each test in every single mouse at least three acceptable maneuvers were conducted to obtain a reliable mean for all numeric parameters.
On day 1, BALB/c mice received systemic immunization by subcutaneous injection of 10 µg of chicken egg ovalbumin (OVA grade V, >98% pure; Sigma, St Louis, MO) diluted in 2 mg/mL Al(OH)3 followed by a booster injection at the day 14 (described in fig. 3). Nasal challenges were performed starting at the day 28, by inhalational exposure to aerosolised ovalbumin (1% ovalbumin in saline 0,9%) for 20 min per day, in alternated days during 16 days (day 28, 30, 32, 34, 36, 38, 40, 42 and 44). At the same time, mice received daily treatment from day 28 to 44 with CL27c (2 mg/ml dissolved in 0.5 % tylaxopol/saline solution, aerosolized for 30′) or vehicle (0.5% tyloxapol/saline solution, aerosolized for 30′), or dexamethasone (5 mg/kg i.p. injection). Untreated control groups included mice challenged with PBS alone. On day 45, mice were sacrificed, and samples were collected for further analysis.
IL-5, IL-13, eotaxin, TGF-β, KC, IL-17A, and MCP-1 levels in the BALF and anti-OVA IgE levels in serum were measured by ELISA technique using commercial DuoSet kits R&D Systems according to the instructions of the manufacturer. Results were expressed in levels of cytokines per ml of […] (pg/ml) or arbitrary units (A.U.).
The left lung was removed and fixed in 4% neutral phosphate-buffered formalin (pH 7.4)[10]. The tissues were dehydrated gradually in ethanol, embedded in paraffin, cut into 4 µm sections, stained with H&E, Gomori’s trichrome and periodic acid schiff (PAS), and examined under light microscopy by a pathologist in a double blinded manner. Images of lung sections were captured with a digital camera (Optronics DEI-470) connected to a microscope (Olympus IX70) with a magnification of ×40 or ×100. […]

Where [3] appears, read: CL27c 2 mg/ml aerosol or dexamethasone 5 mg/kg.
Setting [4] is: aerosolized CL27c 2 mg/ml daily.

For `COC(=O)c1cccc(Cn2cc(-c3cccc4c(=O)cc(N5CCOCC5)[nH]c34)nn2)c1` [CL27c], in data set [1], the “Clint (intrinsic clearance)” value came out at 0.2 ± 0.005 ml/min/mg prot and the t1/2 came to 5.9 ± 0.1 min. Moreover, in data set [2] (setting [3]), the “accumulation of inflammatory cells in peribronchial and perivascular spaces” value was “significantly decreased”; the “lung function: lung resistance (RL) and dynamic compliance (Cdyn)” value is given as “normalize lung function”; the “peribronchial fibrosis (fibrotic airway remodeling)” value is “significantly reduced”. Besides, the methacholine-evoked airway hyperresponsiveness result in data set [2] (aerosolized CL27c 2 mg/ml) is on record as “not able to modify methacholine-evoked airway hyperresponsiveness”. In data set [2] (setting [4]), the “metaplasia of goblet cells and mucus production (PAS)” value is “prevented OVA-induced metaplasia of goblet cells and mucus production”; the “reduction of tissue levels of eosinophil peroxidase (EPO)” value is on record as 55%; the “reduction of tissue levels of myeloperoxidase (MPO)” value is listed as 50%. The “Th2 mediators IL-5, IL-13, and Eotaxin” value in data set [2] (repeated administration) is “lowering of Th2 mediators”.
